In article PMC10108353, “Design and Pharmacological Characterization of α4β1 Integrin Cyclopeptide Agonists: Computational Investigation of Ligand Determinants for Agonism versus Antagonism” (Journal of Medicinal Chemistry, 2023):

Tests used:
α5β1 integrin = α5β1 integrin (Homo sapiens, UniProt P05556+P08648); assay: Competitive solid-phase binding assay, purified α5β1 / FN; settings: read-out: Binding affinity IC50, α5β1/FN
Description: (§1) Solid-phase ligand binding assays on purified integrin were conducted as previously described[34] with the following modifications. […] The following day, wells were blocked with TSB buffer (20 mM Tris-HCl, 150 mM NaCl, 1 mM CaCl2, 1 mM MgCl2, 1 mM MnCl2, pH 7.5, 1% BSA) for 1 h at room temperature. Purified α5β1 (10 μg/mL) or αLβ2 (7 μg/mL) was incubated with the new synthesized compounds, at different concentrations (10^–4 to 10^–10 M), in coated wells for 1 h at RT. Then, after three washes with PBST buffer, primary antibody (anti-α5β1, BD Bioscience, 1:100 dilution or anti-αL, Abcam, 1:200 dilution) was added for 1 h at RT. Then antirabbit AlexaFluor488-secondary antibody (ThermoFisher Scientific, 1:400 dilution) was added after three washes with PBST buffer and incubated 1 h at room temperature.

αMβ2 integrin = αMβ2 integrin (Homo sapiens, UniProt P05107+P11215); assay: HL60 cell adhesion to fibrinogen (Fg); type: cell-based; settings: read-out: IC50 for antagonists, Fg/HL60 αMβ2
Excerpt: (§2) mediated Jurkat cell adhesion to FN.

αLβ2 integrin = αLβ2 integrin (Homo sapiens, UniProt P05107+P20701); assay: Competitive solid-phase binding assay, purified αLβ2 / ICAM-1; settings: read-out: Binding affinity IC50, αLβ2/ICAM-1
Description: as §1

α4β1 integrin [1] = target: T1, α4β1 integrin (Homo sapiens, UniProt P05556+P13612); assay: Jurkat E6.1 cell adhesion to FN; settings: for agonist or antagonist behaviour, FN/Jurkat E6.1 α4β1: agonist = adhesion index >1, antagonist = adhesion index <1
α4β7 integrin = target: T2, α4β7 integrin (Homo sapiens, UniProt P13612+P26010); assay: cell-based; type: cell-based; settings: for IC50: reduction of cell adhesion, >5000 = inactive compounds (IC50/EC50), read-out: IC50 for antagonists, MAdCAM-1/RPMI8866 α4β7
T2 construct: RPMI8866 cells expressing α4β7 integrin to the ligand MAdCAM-1; endogenous in cells; host or cells: RPMI8866
T2 sequence (P13612 34-1032): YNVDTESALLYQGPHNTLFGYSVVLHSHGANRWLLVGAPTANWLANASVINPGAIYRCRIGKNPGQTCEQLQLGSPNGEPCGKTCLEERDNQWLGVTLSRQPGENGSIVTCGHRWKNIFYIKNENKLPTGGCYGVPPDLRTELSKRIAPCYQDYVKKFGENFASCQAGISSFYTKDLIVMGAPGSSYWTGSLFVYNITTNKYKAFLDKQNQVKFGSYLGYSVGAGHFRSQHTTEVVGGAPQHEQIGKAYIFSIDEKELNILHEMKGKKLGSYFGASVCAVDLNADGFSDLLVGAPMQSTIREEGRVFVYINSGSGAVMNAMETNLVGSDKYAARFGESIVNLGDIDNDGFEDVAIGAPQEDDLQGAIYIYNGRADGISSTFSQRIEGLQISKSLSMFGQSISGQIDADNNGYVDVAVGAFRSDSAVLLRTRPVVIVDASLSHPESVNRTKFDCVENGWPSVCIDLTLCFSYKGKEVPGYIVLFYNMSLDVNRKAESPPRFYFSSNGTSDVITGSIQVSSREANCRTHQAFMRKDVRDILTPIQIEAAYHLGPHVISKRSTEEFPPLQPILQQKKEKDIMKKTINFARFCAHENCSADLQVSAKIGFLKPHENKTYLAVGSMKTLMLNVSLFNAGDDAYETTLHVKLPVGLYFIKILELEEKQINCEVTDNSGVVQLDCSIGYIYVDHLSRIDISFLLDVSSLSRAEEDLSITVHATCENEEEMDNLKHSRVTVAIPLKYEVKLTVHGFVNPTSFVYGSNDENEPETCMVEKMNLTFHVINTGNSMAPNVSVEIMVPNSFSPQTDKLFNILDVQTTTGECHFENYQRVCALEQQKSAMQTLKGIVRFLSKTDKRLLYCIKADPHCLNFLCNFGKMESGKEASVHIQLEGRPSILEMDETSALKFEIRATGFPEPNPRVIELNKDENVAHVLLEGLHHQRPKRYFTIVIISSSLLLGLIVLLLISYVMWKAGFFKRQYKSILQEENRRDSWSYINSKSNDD
T2 sequence (P26010 20-798): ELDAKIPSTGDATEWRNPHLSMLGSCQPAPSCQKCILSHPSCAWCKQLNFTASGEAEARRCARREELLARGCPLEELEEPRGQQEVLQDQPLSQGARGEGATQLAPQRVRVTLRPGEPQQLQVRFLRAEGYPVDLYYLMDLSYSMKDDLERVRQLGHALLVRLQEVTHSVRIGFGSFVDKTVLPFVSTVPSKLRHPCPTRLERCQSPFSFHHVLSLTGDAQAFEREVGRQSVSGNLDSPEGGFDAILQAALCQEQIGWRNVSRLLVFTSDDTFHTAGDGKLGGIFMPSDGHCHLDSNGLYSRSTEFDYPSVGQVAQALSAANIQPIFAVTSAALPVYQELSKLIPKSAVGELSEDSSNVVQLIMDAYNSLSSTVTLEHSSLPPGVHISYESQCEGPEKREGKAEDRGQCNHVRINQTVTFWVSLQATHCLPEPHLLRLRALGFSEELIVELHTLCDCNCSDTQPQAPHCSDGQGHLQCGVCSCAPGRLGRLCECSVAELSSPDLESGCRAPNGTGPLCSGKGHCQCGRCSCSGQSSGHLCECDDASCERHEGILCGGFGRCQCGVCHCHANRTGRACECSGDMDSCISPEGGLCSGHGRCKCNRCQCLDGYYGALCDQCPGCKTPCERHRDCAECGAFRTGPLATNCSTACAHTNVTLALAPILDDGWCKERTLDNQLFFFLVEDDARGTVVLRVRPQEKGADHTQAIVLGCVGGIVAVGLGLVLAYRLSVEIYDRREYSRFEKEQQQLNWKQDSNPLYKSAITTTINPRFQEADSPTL
Excerpt: as §2

α4β1 integrin [2] = target: T1, α4β1 integrin; assay: Competitive solid-phase binding assay, purified α4β1 / FN; set-up: purchased R&D Systems; settings: mean ± SD, three experiments in triplicate, read-out: Binding affinity IC50, α4β1/FN
Description: For the evaluation of binding affinity to purified α4β1, αMβ2, and α4β7 integrins, competitive solid-phase ligand binding assays were performed as follows. […] Afterward, each well was washed and blocked for 1 h at RT. Purified integrins (α4β1: 0.5 μg/mL; α4β7: 0.5 μg/mL; αMβ2: 0.5 μg/mL; R&D Systems) were preincubated with serial dilutions of new compounds (10^–4 – 10^–10 M) for 30 min at RT and then plated into coated wells for 1 h at RT. After two washes, primary antibody (for α4β1 and α4β7: rabbit anti-α4, Abcam, 1:100 dilution; for αMβ2: rabbit anti-αM, Abcam, 1:100 dilution) was added and incubated for 1 h at RT. The plate was washed twice and then was incubated with anti-rabbit AlexaFluor488 secondary antibody (1:400 dilution, ThermoFischer Scientific) for 1 h at RT. After washing three times, fluorescence was measured as described in the previous section.

SMILES | IC50 (α5β1 integrin) | IC50 (αMβ2 integrin) | IC50 (αLβ2 integrin) | agonist or antagonist behaviour, FN/Jurkat E6.1 α4β1 (α4β1 integrin [1]) | EC50 (α4β1 integrin [1]; read-out: EC50 for agonists, FN/Jurkat E6.1 α4β1, increase of cell adhesion, mean ± SD, three experiments in quadruplicate) | agonist or antagonist behaviour, MAdCAM-1/RPMI8866 α4β7 (α4β7 integrin; agonist = adhesion index >1, antagonist = adhesion index <1) | IC50 (α4β7 integrin) | IC50 (α4β1 integrin [2])
Cc1ccccc1NC(=O)N1C(=O)CC1CC(=O)O (centres unmarked) [1a] | > 5000 nM | > 5 µM | > 5 µM | agonist | 15.6 ± 1.5 nM | inactive | > 5 µM | 13.3 ± 6.3 nM
Cc1ccccc1NC(=O)N1C(=O)CC1CC(=O)NCC(=O)O (centres unmarked) [1b] | 49 ± 7 nM | > 5 µM | > 5 µM | completely ineffective | – | – | > 5 µM | > 5000 nM
